Test results from patent publication US20110082087A1, “COMPOUNDS FOR TREATING PAIN” (Edificio ICAT, priority 2008, published 2011).

How the values were obtained:
[1] = Plasma serum stability of analogues; assay type: in vitro ADME; details: Human Serum, 1-hour incubation, read-out: Mean Parent Remaining (%); for remaining at 1 h, 800 uM: test concentration 800 uM; for remaining at 1 h, 400 uM: test concentration 400 uM
Procedure: These analogues were tested for plasma serum stability, in comparison with KTP-NH2.

rats = assay: Comparison with morphine, behavioural nociception tests and behaviour observation; assay type: in vivo, rat; details: rats; i.p.
Procedure: (§1) In vivo behavioural anti-nociception tests were carried out in rats (Wister, male). Unless otherwise stated, compounds were administered by intra-peritoneal (i.p.) injection. For most assays, the Tail Flick and the Hot Plate tests were used.
The analgesic potential of KTP-NH2 was also verified by comparison with well-known, widely-used analgesic molecules: ibuprofen and morphine.
From FIG. 12 it is possible to observe that the efficacy of 3 mg/100 g of KTP-NH2 is similar to that observed with 0.5 mg/100 g dose of morphine.

rats (Wister, male) [2] = assay: Tail Flick test; assay type: in vivo, rat; details: i.p.; rat
Procedure: as §1
The tail-flick test (D'Amour F. E., Smith D. L. 1941. A method for determining the loss of pain sensation. J Pharmacol Exp Ther 1941; 72:74-79) is a standard investigative tool for pain and analgesia assessment in rodents. It is based on a spinal reflex response of the tail to radiant heat. Pain sensitivity in rats was measured as they responded to the application of radiant heat to a small area of their tails. The rat's tail was placed over a window located on a platform and subjected to irradiation by an intense light beam (10 W). When the rat feels discomfort, it flicks its tail which automatically stops the timer. The reaction time from activation of the light beam to the tail flick is automatically presented on a digital display. A cut-off time of 24 s was applied. Animal reaction time is a measurement of animal resistance to pain and is used to measure efficacy of analgesics.

rats (Wister, male) [3] = assay: Increasing-temperature Hot Plate test; assay type: in vivo, rat; details: i.p.; rat
Procedure: as §1
The hot-plate test (Eddy N. B and Leimbach D. 1953. Synthetic analgesics II. Dithienylbutenyl and dithienylbutylamines J. Pharmacol. Exp. Ther. 45: 339) evaluates a supraspinally integrated response in the form of thermal pain reflexes due to footpad contact with a heated surface. During the experiments, the animal is confined in a removable clear acrylic compartment where the latency time to the first hind paw or/and jumping responses are measured. […] The response is the licking of the hindpaw, and the corresponding plate temperature represents the recorded nociceptive end-point. The advantage of Increasing-Temperature Hot-Plate test over the standard constant-temperature hot-plate test is the higher sensitivity and the lack of influences of pre-exposure to the hot-plate before testing. Animal reaction temperature is a measurement of animal resistance to pain and is used to measure efficacy of analgesics.

[4] = Partition into lipid bilayer vesicles (fluorescence titration); assay type: physicochemical; details: mammal-mimetic lipid bilayer vesicle; numerical treatment of fluorescence titration
Description: We performed biophysical studies using fluorescent methodologies in order to characterize the interaction of KTP-NH2 with liposomes representing human cell membranes (Santos N. C., Prieto M. and Castanho M. A. 2003. Quantifying molecular partition into model systems of biomembranes: an emphasis on optical spectroscopic methods. Biochim Biophys Acta 1612: 123-135.). A clear interaction of KTP-NH2 with the lipid bilayers was observed. […] When titrated with a mammal-mimetic lipid bilayer vesicle (circles), the fluorescence intensity of the phenolic moiety increases due to insertion in the apolar environment created by the lipids. The POPC system mimetizes the external layer of human cell membranes, whereas POPG lipidic mixture mimetizes the internal layer of human cell membranes.
In order to confirm that these plasma-stable KTP-NH2 derivatives maintained their lipophilicity, their potential interaction with human cell membranes was assessed. Again, we performed biophysical studies using fluorescent methodologies (Santos N. C., Prieto M. and Castanho M. A. 2003. Quantifying molecular partition into model systems of biomembranes: an emphasis on optical spectroscopic methods. Biochim Biophys Acta 1612: 123-135.).

CC(C)Cc1ccc(C(C)C(=O)N[C@H](Cc2ccc(O)cc2)C(=O)N[C@@H](CCCNC(=N)N)C(N)=O)cc1 (stereo partly drawn) [Ibu-D-Tyr-L-Arg-NH2, Ibuprofen-D-Tyrosyl-L-Arginine-NH2]
remaining at 1 h, 800 uM [1]: 94.1%

N=C(N)NCCC[C@H](NC(=O)[C@H](N)Cc1ccc(O)cc1)C(N)=O [D-Tyr-L-Arg-NH2, D-Tyrosyl-L-Arginine-NH2]
remaining at 1 h, 400 uM [1]: 98%

N=C(N)NCCC[C@@H](NC(=O)[C@H](N)Cc1ccc(O)cc1)C(N)=O [D-Tyr-D-Arg-NH2, D-Tyrosyl-D-Arginine-NH2]
remaining at 1 h, 400 uM [1]: 98.4%

CN1CC[C@]23c4c5ccc(O)c4O[C@H]2[C@@H](O)C=C[C@H]3[C@H]1C5 [morphine, reference compound]
alterations in behavior (secondary effects) (rats): several alterations in behavior, like scratching

CN[C@@H](Cc1ccc(O)cc1)C(=O)N[C@H](CCCNC(=N)N)C(N)=O [Me-L-Tyr-D-Arg-NH2, Methyl-L-Tyrosyl-D-Arginine-NH2]
remaining at 1 h, 400 uM [1]: 98.5%

CC(C)Cc1ccc([C@H](C)C(=O)N[C@@H](Cc2ccc(O)cc2)C(=O)N[C@@H](CCCNC(=N)N)C(N)=O)cc1 [Ibu-KTP-NH2, Ibuprofen-L-Tyrosyl-L-Arginine-NH2]
remaining at 1 h, 800 uM [1]: 51.4%

CN[C@@H](Cc1ccc(O)cc1)C(=O)N[C@@H](CCCNC(=N)N)C(N)=O [Me-L-Tyr-L-Arg-NH2, Methyl-L-Tyrosyl-L-Arginine-NH2]
remaining at 1 h, 400 uM [1]: 89%

N=C(N)NCCC[C@H](NC(=O)[C@@H](N)Cc1ccc(O)cc1)C(=O)O [KTP, L-Tyrosyl-L-Arginine, reference compound]
effect on tail flick latency (rats (Wister, male) [2]): very small effect
effect in hot plate test (rats (Wister, male) [3]): very small effect

Ibuprofen-L-Tyrosyl-L-Arginine-OH [Ibu-KTP]
local concentration in the model membrane of mammals relative to surrounding bulk aqueous phase [4]: ~333 fold

N=C(N)NCCC[C@@H](NC(=O)[C@@H](N)Cc1ccc(O)cc1)C(N)=O [L-Tyr-D-Arg-NH2, L-Tyrosyl-D-Arginine-NH2]
remaining at 1 h, 400 uM [1]: 78.8%
